Source: patent publication US20260265055A1, “Sulfine-Based Compounds for Generating Hydrogen Persulfide” (Brown University, priority 2023, published 2026)

Assays:
[1] = Oxidation of TT to TTS by ROS, UV-Vis (339 nm); type: physicochemical; details: for k2 (TT oxidation rate constant): PBS pH 7.4
Procedure: TT was treated with H2O2, the most prevalent oxidant in biology. Stock solutions for hydrogen peroxide (H2O2), t-butyl hydroperoxide (^tBuOOH), peracetic acid (AcOOH), and sodium hypochlorite (NaOCl), were prepared in deionized water. H2O2 was diluted from a commercially available solution (30%). The concentration of H2O2 was determined using the absorption at 240 nm (ε=[…]). ^tBuOOH was diluted from commercially available solutions (70%). AcOOH was diluted from commercially available solutions (32%). NaOCl was diluted from commercially available solution containing 11-15% available chlorine. The concentration of HOCl was determined using the absorption at 292 nm (ε=[…]).
TT was dissolved in DMSO to afford a 10 mM stock solution. For H2O2, ^tBuOOH and AcOOH, substrate TT (10 μM) and ROS (1 mM) were mixed in PBS buffer, pH=7.4 with DMSO (1%) under room temperature. For NaClO, TT (100 μM) and NaClO (1 mM) were mixed in PBS buffer, pH=7.4 with DMSO (1%) under room temperature. The rate of production of TTS was detected by UV-Vis spectrum (λ=339 nm) based on the decrease of TT. A pseudo-first order reaction was assumed; the second-order k constant (k2) was calculated using the method described below.
(§1) The transformation from TT to TTS was clean. The progress of the reaction was monitored by UV-Vis spectra and the reaction rate constant (k2) was measured to be […]. The oxidation of TT by several other oxidants including t-BuOOH, AcOOH, and OCl^− was measured and the TT oxidation rate constants k2 are summarized in Table 1. ^aThe rate constant was estimated.

[2] = NMR monitoring of the oxidation of TT to TTS; type: physicochemical; details: TT 20 mM in CD3CN/D2O (1:1) with H2O2, room temperature
Procedure: To an NMR tube, the solution of TT (0.2 mmol, final concentration is 20 mM) in CD3CN/D2O (1:1) was added, followed by adding H2O2 (10 μM, 20 μM). The NMR tube was shacked immediately and incubated at room temperature for 0 min, 30 min, 3 h, and 24 h.
as §1

[3] = SSP4 fluorescence assay to determine generation of H2S2 in buffer; details: SSP4 5 μM
Excerpt: To further evaluate the specificity of TTS in converting H2S to H2S2, SSP4 was used to monitor the formation of H2S2 in this reaction and the results were compared with a series of controls. Details of the SSP4 experiments are provided later herein. SSP4 is a well-established fluorescent sensor for sulfane sulfurs including H2S2. See Shieh, M. et al., Shining a light on SSP4: a comprehensive analysis and biological applications for the detection of sulfane sulfurs. Redox Biol. 2022, 56, 102433. […] Without wishing to be bound by scientific theory, it is believed that thiols would compete with SSP4 to react with H2S2, thereby causing decreased signals.
SSP4 was dissolved in DMSO to obtain a 200 μM stock solution. CTAB was dissolved in ethanol to yield a 2 mM stock solution. TTS and TT were dissolved in DMSO to make 1 mM stock solutions. Na2S, Na2S2, and L-cysteine were prepared in MilliQ H2O to obtain stock solutions at 2 mM, 1 mM, and 4 mM, respectively. 50 mM PBS buffer was added to individual wells of a black polystyrene, flat-bottomed clear 96-well plate, followed by TTS (25 μM) or TT (25 μM), and Na2S (50 μM), cysteine (100 μM), or Na2S2 (25 μM). For the interference assay, TTS or TT (25 μM) were added to wells with or without Na2S (50 μM). Samples were mixed by pipetting up and down and incubated in the dark at room temperature (rt) for 30 min. Next, CTAB (50 μM) was added to all wells followed by SSP4 (5 μM), and samples were mixed by pipetting up and down. The final volume was 200 μL in each well. Samples were then incubated in the dark at room temperature for another 30 min before being measured on a Molecular Devices SpectraMax iD3 Multi-Mode Microplate Reader (emission 525 nm; excitation 485 nm; integration time […], low PMT sensitivity, attenuation 1, read height 1.00 mm).

HeLa cells = test: Live cell imaging of H2S2 formation with SSP4; type: cell-based; details: 30 min
Procedure: HeLa cells were seeded at ~7000 cells/well in a 96-well clear flat-bottomed BioLite plate (ThermoFisher Scientific, #130188) in DMEM/F12 (1:1) (Gibco, Invitrogen, #11330-032) medium supplemented with 10% fetal bovine serum (FBS) at 37° C., 5% CO2 overnight.
Preparation before cell treatment: Na2S and Na2S2 stocks were prepared at 10 mM in sterile 1×PBS. TTS and TT were prepared at 10 mM concentrations in DMSO. They were then diluted to 50 μM concentrations in serum-free Fluorobrite DMEM in individual Eppendorf tubes (0.5% DMSO). Na2S (final concentration=100 μM) was added to the Eppendorf tube containing Fluorobrite DMEM and TTS or TT immediately before being added to the cells. Compounds were mixed by pipetting up and down prior to cell addition.
Cell treatment: Culturing media was aspirated from all wells, and cells were washed twice with 1×PBS. Compounds were added to cells (200 μL/well) and incubated for 30 min at 37° C., 5% CO2. While cells were incubating, SSP4 treatment was prepared by first adding 5 mM CTAB in ethanol to Fluorobrite DMEM followed by 6.125 mM SSP4 in DMSO to final concentrations of 100 μM and 5 μM, respectively, in a tube. The final volume was 5 mL (0.08% DMSO). Compounds were mixed by pipetting up and down prior to cell addition. After incubation, media was aspirated, and cells were washed twice with 1×PBS. SSP4 treatment was added to all wells (100 μL/well), and cells were incubated for 30 min at 37° C., 5% CO2 for 30 min. Media was then aspirated, and cells were washed three times with 1×PBS. Fluorobrite DMEM was added to all wells before imaging on the Keyence All-in-One Fluorescence Microscope (BZ-X810) (excitation: 470/40 nm; emission: 525/50 nm).
As shown in FIGS. 4(A)-(D), HeLa cells were treated with TTS, TTS+H2S, or TT for 30 min before the fluorescent sensor SSP4 was applied to the cells to monitor the formation of H2S2. […] Na2S2 was used as the positive control in this study (FIG. 4D). Other control studies including TT+H2S, H2S only, and SSP4 only were also performed. […] FIG. 4H is a graph of fluorescence intensities of SSP4 staining. Data are mean values ±SEM calculated using ImageJ. (n=9, where three different images were obtained from each of three samples and quantified).

In the case of `COC(=O)c1ccc(=S)sc1` [TT, methyl 2-thioxo-2H-thiopyran-5-carboxylate], the “k2 (TT oxidation rate constant)” value ([1]; ROS AcOOH 1 mM, TT 10 μM) is reported as 13.9 M⁻¹ s⁻¹, the “k2 (TT oxidation rate constant)” value ([1]; ROS H2O2 1 mM, TT 10 μM) is reported as 0.1 M⁻¹ s⁻¹ and the “k2 (TT oxidation rate constant)” value ([1]; ROS OCl^− (NaClO 1 mM), TT 100 μM, rate constant was estimated) is reported as >1.0 × 10^3 M^−1 s^−1 a. The “k2 (TT oxidation rate constant)” value ([1]; ROS ^tBuOOH 1 mM, TT 10 μM) was 0.01 M⁻¹ s⁻¹, the reaction rate constant (k2) of TT oxidation by H2O2 ([1]; UV-Vis, TT 10 μM, H2O2 1 mM, PBS pH 7.4, room temperature) was 0.1 M⁻¹ s⁻¹ and the “time to completion of TT to TTS oxidation (NMR)” value [2] was 24 h. The “SSP4 fluorescence response (H2S2 formation)” value ([3]; 25 μM compound + 50 μM Na2S (H2S), PBS) was “No fluorescence”, the “SSP4 fluorescence response (sulfane sulfur formation)” value ([3]; 25 μM compound + 100 μM Cys) was “No fluorescence” and the “SSP4 fluorescence response (H2S2 formation)” value ([3]; 25 μM compound only) was “No fluorescence”. For the same molecule, the “SSP4 fluorescence in HeLa cells” value (HeLa cells; compound 50 μM + Na2S 100 μM) was “Obvious fluorescence in these samples was not observed” and the “SSP4 fluorescence in HeLa cells” value (HeLa cells; compound only) was “did not show obvious fluorescence”.
